Measured values as given in patent publication US20190316211A1, “ONCOGENIC ALTERNATIVE SPLICING SWITCH OF PACE4 IN CANCER” (SOCIETE DE COMMERCIALISATION DES PRODUITS DE LA RECHERCHE …, priority 2016, published 2019).

How the values were obtained:
Assay type in all cases: cell-based
[1] = system: DU145 cells; experiment: PACE4 exon 25 splicing index (PACE4-altCT/PACE4-FL mRNA) by qPCR; conditions: DU145, treated for 72 h
Experimental: (§1) For actinomycin-D (Sigma Aldrich) or cycloheximide (Sigma Aldrich) treatments, compounds were first dissolved in DMSO, and diluted to a final concentration of 5 μg/mL and 40 μg/mL in the culture medium respectively. Actinomycin-D treatment never exceeded 8 h, which is the time-frame prior to early apoptosis induction. For treatments wit 5-aza-2′-deoxy-cytidine (Sigma Aldrich), compound was first dissolved in DMSO and further diluted prior to addition to cell culture medium, which was changed every day and replaced with fresh one containing the compound for a total exposure of 72 h. […]
(§2) 1 μg RNA was DNase I-treated (Invitrogen), reverse-transcribed using Superscript II reverse transcriptase (Invitrogen), and RNase H-treated (Ambion, Austin, Tex.) before quantitative PCR performed using a Stratagene Mx3005P instrument. Relative expression levels were calculated using β-actin as a reference gene with the formula (1+amplification efficiency)^−(CT). […]

[2] = system: LNCaP cells; experiment: as above; conditions: treated for 72 h
Experimental: as §1, §2

[3] = system: CpG dinucleotides of interest in PCSK6 gene; experiment: CpG methylation status analysis by pyrosequencing; conditions: DU145 and LNCaP cells, 72 h, refreshed every 24 h
Description: FIG. 5 illustrates decitabine (5-aza-dC) efficiency at hypomethylating CpG dinucleotides of interest in PCSK6 gene, showing in (A) schematic representation of the 3′ extremity of PCSK6 gene, putting emphasis on the coding and non-coding region between exon 24, exon 25 and exon 25 alt, wherein ChiP-Seq enriched regions as viewed in UCSC genome browser ChiP-Seq are represented as ovals, each CpG nucleotide analyzed is highlighted, and the inversion of 5′ and 3′ ends is shown for reading purposes; (B) DU145 and LNCaP cells (C) were treated with decitabine at the indicated concentrations for 72 h (medium and decitabine being refreshed every 24 h) and DNA was extracted and used for CpG methylation status analysis using pyrosequencing.
DNA was purified from 14 pairs of tumoral and non-tumoral prostate biopsies and from DU145 and LNCaP cells treated with 5axa-dC using DNeasy Blood & Tissue Kit (Qiagen, #69504). Concentration, yield and purity of gDNA samples were measured using spectrometry. All samples provided good gDNA yield and quality (A260/A280 ratio between 1.7 and 2.0). Gold standard pyrosequencing technology was used to determine base-specific cytosine methylation levels located upstream of guanines (sequence called CpG dinucleotides). […] Overall, nine potentially methylated cytosines (in a CpG dinucleotides context) were analyzed at the PCSK6 gene locus.

[4] = system: CTCF binding to PCSK6 alternative terminal exon regions; experiment: Chromatin immunoprecipitation with anti-CTCF antibody; conditions: DU145 and LNCaP cells treated for 72 h
Experimental: Cells were cultured in 150 mm culture dishes and submitted to crosslinking through the addition of formaldehyde to a final concentration of 1.1% for 10 min at room temperature followed by a quenching step with 125 mM glycine for another 5 min. Cells were washed twice with ice-cold PBS, collected using a cell scraper and frozen in liquid nitrogen and stored at −80° C. until analyses. Cell pellets were resuspended in HEPES 10 mM pH 6.5; 0.5 mM EDTA, 0.25% Triton-X-100 and centrifugated at 4,000 rpm at 4° C. for 5 min. Pellet was further lysed by adding 200 μL of Tris 50 mM pH 8.1; 10 mM EDTA, 1% SDS and passing 3 times through a 28 G syringe. Cell preparations were incubated 1 h at 4° C. with constant agitation and nuclei were pelleted by a centrifugation at 5,000 rpm. […] DNA fragmentation was routinely assessed by agarose gel electrophoresis using 10 μL of the fragmented DNA solution (beforehand treated with RNase A 10 μg/mL for 10 min). For each IP, 350 μg of DNA were used (based on concentration determined using the OD260 nm) and 5% of the corresponding volumes were kept aside as Input DNA for quantitation. […] 3 μL of the purified DNA were further used for qPCR analyses and quantitation was established using the 1% input as a standard.

[5] = target: T1, PACE4-FL (Homo sapiens, UniProt P29122); experiment: PACE4 secretion assay, displacement by heparin; conditions: increasing doses
T1 construct: V5 (C); His (C); expressed in transfected cells
T1 sequence (P29122 150-969): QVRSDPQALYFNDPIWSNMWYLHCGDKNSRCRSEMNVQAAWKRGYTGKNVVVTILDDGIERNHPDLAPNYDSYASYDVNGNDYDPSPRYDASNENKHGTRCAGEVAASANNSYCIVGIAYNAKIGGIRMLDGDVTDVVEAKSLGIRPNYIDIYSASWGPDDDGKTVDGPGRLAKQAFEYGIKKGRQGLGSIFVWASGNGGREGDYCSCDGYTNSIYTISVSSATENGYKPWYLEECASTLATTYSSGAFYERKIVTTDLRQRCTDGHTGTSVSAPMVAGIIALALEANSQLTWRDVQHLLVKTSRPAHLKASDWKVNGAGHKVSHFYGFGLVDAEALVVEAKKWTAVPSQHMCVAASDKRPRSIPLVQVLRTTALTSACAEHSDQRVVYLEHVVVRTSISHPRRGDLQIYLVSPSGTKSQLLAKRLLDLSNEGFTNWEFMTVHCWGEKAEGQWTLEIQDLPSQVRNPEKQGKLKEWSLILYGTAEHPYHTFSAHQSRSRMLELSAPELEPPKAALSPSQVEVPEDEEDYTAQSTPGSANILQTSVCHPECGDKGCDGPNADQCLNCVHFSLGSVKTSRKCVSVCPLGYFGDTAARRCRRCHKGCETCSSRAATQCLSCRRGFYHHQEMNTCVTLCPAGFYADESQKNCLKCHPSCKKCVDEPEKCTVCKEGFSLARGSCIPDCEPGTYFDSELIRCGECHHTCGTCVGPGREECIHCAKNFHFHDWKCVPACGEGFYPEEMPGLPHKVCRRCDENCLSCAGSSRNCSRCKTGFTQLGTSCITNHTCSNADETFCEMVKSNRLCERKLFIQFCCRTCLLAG
Description: (§3) The first major distinction observed was the lack of secretion of PACE4-altCT accompanied with intracellular retention when compared to PACE4-FL which was efficiently secreted in the medium (FIGS. 7B and C). This observation correlated with the distinct cell distribution observed for each isoforms in IHC, i.e. the PACE4-FL being more accumulated at the membrane/extracellular surface compared to PACE4-altCT being restricted to the vesicular intracellular compartment (FIG. 3D). PACE4, at least PACE4-FL, is known to be secreted in the medium and to be retained in the extracellular matrix through the binding to heparan sulfate proteoglycans by its cysteine-rich domain and to be displaceable by heparin.
(§4) For PACE4 secretion assays, cells were plated at equal densities in 6-well plates for 24 h in complete medium. 24 h later, the medium was replaced by the minimal volume required of fresh culture medium (600 μL without FBS) and the cells were either allowed to secrete for the indicated time (for secretion kinetics) or (for inhibitor treatments) allowed to secrete for an additional 24 h in the presence of the indicated concentrations of agents (heparin (Sandoz, Niirnberg, Germany), 2-bromopalmitate (Sigma Aldrich), FTI-277 (Sigma Aldrich), GGTI-2133 (Santa Cruz Biotechnology Inc., Santa Cruz, Calif., USA)

[6] = target: T2, PACE4-altCT (Homo sapiens, UniProt P29122); experiment: PACE4 secretion assay, displacement by heparin; conditions: increasing doses
T2 construct: V5 (C); His (C); expressed in transfected cells
T2 sequence (P29122 with tags, fused parts or gaps limits assumed): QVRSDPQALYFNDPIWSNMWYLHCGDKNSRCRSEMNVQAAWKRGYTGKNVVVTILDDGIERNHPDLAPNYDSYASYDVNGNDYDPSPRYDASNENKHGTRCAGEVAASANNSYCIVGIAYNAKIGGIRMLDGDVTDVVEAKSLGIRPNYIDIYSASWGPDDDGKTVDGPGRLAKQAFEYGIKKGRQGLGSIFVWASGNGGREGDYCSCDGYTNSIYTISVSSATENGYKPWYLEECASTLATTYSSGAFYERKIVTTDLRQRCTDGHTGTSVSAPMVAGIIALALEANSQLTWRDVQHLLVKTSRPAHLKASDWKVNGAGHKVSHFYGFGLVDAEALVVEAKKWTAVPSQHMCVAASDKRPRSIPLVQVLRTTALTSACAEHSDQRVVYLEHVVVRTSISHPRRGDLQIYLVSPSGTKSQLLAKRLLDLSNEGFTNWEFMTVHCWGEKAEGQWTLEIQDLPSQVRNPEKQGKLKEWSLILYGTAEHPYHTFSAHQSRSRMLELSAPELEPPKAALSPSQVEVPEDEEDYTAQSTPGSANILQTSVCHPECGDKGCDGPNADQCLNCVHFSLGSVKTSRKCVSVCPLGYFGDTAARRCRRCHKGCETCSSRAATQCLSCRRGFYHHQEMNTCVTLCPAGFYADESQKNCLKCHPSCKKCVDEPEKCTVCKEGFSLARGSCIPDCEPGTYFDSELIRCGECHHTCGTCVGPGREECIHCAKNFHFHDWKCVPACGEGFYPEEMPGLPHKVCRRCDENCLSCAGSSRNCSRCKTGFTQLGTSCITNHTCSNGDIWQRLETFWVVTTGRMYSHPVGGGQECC
Description: as §3, §4

Compound	change of splicing index [1]	change of splicing index [2]	CpG hypomethylation [3]	CTCF ChIP enrichment of intra-exonic and upstream region [4]	displacement into the medium by heparin [5]	displacement into the medium by heparin [6]
Nc1ncn([C@H]2C[C@H](O)[C@@H](CO)O2)c(=O)n1 [decitabine, 5-aza-2′-deoxycytidine]	increased in a dose-dependent manner	increased in a dose-dependent manner	sensitive to decitabine in a dose-dependent manner	clear enrichment	–	–
heparin	–	–	–	–	increased amount in the medium	could not be displaced
